Key:
[1] = system: cAMP production in SS RBCs
Protocol: Whole cell cAMP accumulation was assayed to assess the functional capacity of the RBC β2-ARs to stimulate the production of cAMP. Washed packed RBCs were pre-treated with IBMX to define basal cAMP accumulation, followed by treatment with epinephrine for 1 min or 30 min, or forskolin. Samples were placed on ice, stimulation was halted, and cells fixed by the addition of 12.5 mM EDTA. Cell samples were boiled, clarified by centrifugation and assayed for cAMP content by radioimmunoassay as described previously.^22 Basal cAMP production was subtracted from the total cAMP produced by the cells. The amounts of cAMP were then normalized as fmol cAMP/10^8 RBCs.

[2] = system: human SS RBC adhesion in inflamed venules and vaso-occlusion; test: Intravital microscopy in TNF-α-treated nude mice infused with human SS RBCs treated ex vivo with MEK inhibitor; conditions: for percentage of venular length occupied by treated SS RBCs: compared to sham
Description: For some in vivo adhesion studies, packed SS RBCs were fluorescently labeled with the dye Dil (Molecular Probes Inc., Eugene, Oreg.), following the manufacturer's instructions. […] Cell morphology was checked by microscopy.

[3] = system: PMN adhesion to non-activated HUVECs; test: Adhesion to HUVECs of PMNs co-incubated with epinephrine-stimulated SS RBCs; type: cell-based, human; conditions: SS RBCs pre-incubated with inhibitor for 1 hour, then 20 nM epinephrine 1 min
Protocol: The cells were then washed prior to admixture with fluorescently-labeled native polymorphonuclear cells (PMNs) obtained from healthy donors at a RBC:PMN ratio of 10:1. After co-incubation for 30 minutes at 37° C., cells mixtures were assayed for their ability to adhere to non-activated HUVECs. […] Downregulation of RBC adhesion receptor activity by targeting ERK may not only decrease SS RBC adhesion to the endothelium but also reduce RBC-stimulated leukocyte activation.

[4] = SS RBCs treated ex vivo with 10 μM inhibitor for 1 hour, n=5

SMILES | intracellular cAMP ([1]; epinephrine 1 min, about 50% of samples (n=19)) | cAMP levels ([1]; epinephrine 30 min) | human SS RBC adhesion in inflamed venules [2, 4] | vessel obstruction [2, 4] | percentage of venular length occupied by treated SS RBCs ([2]; vessels 25 μm in diameter) | percentage of venular length occupied by treated SS RBCs ([2]; vessels with a diameter >25 μm) | ability of epinephrine-activated SS RBCs to promote neutrophil (PMN) adhesion to HUVECs [3]
CNC[C@H](O)c1ccc(O)c(O)c1 [epinephrine] | accumulation of high levels of intracellular cAMP | uniformly declined |  |  |  |  | 
N#CC(=C(/N)Sc1ccccc1N)/C(C#N)=C(\N)Sc1ccccc1N [U0126] |  |  | dramatically decreased | prevented vessel obstruction | significantly decreased | significantly decreased | significantly decreased
